Assay results published in EP0777471B1, “INHIBITION OF LEUKOTRIENE BIOSYNTHESIS WITH UREA DERIVATIVES” (MINNESOTA MINING AND MANUFACTURING COMPANY, priority 1994, dated 1996).

Experiments:
[1] = target: T1, 5-lipoxygenase (Homo sapiens, UniProt P09917); assay: 5-Lipoxygenase inhibition in human leukocytes (A23187-stimulated, LTC4 radioimmunoassay); format: cell-based; conditions: human leukocytes, A23187 Calcium Ionophore, LTC4 formed; read-out: IC50
T1 construct: Whole human blood is collected by venipuncture into EDTA; endogenous in cells; host or cells: leukocytes isolated from whole human blood (dextran sedimentation, hypotonic lysis)
T1 sequence (P09917 1-674): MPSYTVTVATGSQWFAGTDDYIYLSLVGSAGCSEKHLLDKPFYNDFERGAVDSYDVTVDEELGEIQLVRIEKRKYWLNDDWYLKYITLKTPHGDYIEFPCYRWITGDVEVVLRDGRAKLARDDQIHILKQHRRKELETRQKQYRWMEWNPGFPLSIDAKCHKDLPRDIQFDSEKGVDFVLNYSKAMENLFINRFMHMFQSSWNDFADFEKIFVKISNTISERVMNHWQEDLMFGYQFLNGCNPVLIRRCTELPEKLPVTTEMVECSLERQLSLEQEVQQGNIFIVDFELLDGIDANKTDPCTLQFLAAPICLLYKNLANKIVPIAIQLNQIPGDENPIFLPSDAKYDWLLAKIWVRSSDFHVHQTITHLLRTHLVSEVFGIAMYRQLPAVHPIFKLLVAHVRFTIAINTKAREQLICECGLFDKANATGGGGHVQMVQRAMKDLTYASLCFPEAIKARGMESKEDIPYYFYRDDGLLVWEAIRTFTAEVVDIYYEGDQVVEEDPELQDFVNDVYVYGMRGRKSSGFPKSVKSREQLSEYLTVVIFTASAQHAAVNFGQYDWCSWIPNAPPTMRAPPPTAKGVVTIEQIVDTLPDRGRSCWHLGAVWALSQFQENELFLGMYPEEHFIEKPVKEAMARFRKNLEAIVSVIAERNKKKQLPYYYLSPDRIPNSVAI
Description: The test method described below measures the ability of compounds to inhibit 5-lipoxygenase activity in human leukocytes.
Whole human blood is collected by venipuncture into EDTA (1.4 mL of 0.25M per 60 mL of whole blood). The red blood cells are sedimented with a 6% dextran/0.9% sodium chloride solution at a ratio of 25 mL whole blood to 15 mL dextran solution. The blood/dextran combination is mixed by inversion and the red blood cells are allowed to settle out for 45 minutes at ambient temperature. The plasma/dextran supernatant is removed then centrifuged at ambient temperature at 3000 rpm for 10 minutes. The plasma/dextran supernatant is removed and the cells are resuspended in 10 mL of the plasma/dextran solution. […] The pellet is then resuspended into Tris buffer containing 1 mM calcium chloride to provide approximately 1.0 X 10^7 cells/mL.
Compounds are dissolved in dimethyl sulfoxide. […] Each concentration is tested in duplicate.
A 15 µL portion of Tris buffer containing 1 mM calcium chloride is added to each well of a 96 well microtiter plate. A 1 µL portion of drug solution or vehicle (dimethyl sulfoxide) is added to each well followed by the addition of an 75 µL portion of the cell suspension. The plates are gently mixed then allowed to stand at ambient temperature for 10 minutes. A 10 µL portion of 30 µM A23187 Calcium Ionophore (prepared by dissolving the ionophore in DMSO and then diluting 1:80 into the Tris buffer) is added to each well except the wells that contain the blanks (The blank wells measure the level of LTC4 production in the absence of A23187.). The plates are gently mixed then incubated at 37°C for 10 minutes.
Following incubation the plates are centrifuged at 2000 rpm for 1.5 minutes and the supernatant is removed as quickly as possible to stop the reaction. The supernatants are frozen at -20°C until they are assayed.
The supernatants are assayed for the presence of Leukotriene C4 by radioimmunoassay which is performed according to the manufacturer's (Advanced Magnetics; Cambridge, MA) instructions.

[2] = test system: production of Leukotriene C4 in mouse peritoneal macrophages; assay: In vitro mouse peritoneal macrophage Leukotriene C4 inhibition (zymosan-stimulated, LTC4 radioimmunoassay); format: cell-based; conditions: Zymosan 50 µg/mL
Method in brief: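 Adherent peritoneal macrophages from female CD-1 mice were preincubated 15 minutes at 37°C with compound (10, 1 and 0.1 µM, duplicate; DMSO). They were then stimulated with 50 µg/mL zymosan for 1 to 2 hours. Leukotriene C4 released into the medium was measured by radioimmunoassay.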

[3] = test system: production of Leukotriene B4; assay: Rat ex vivo Leukotriene B4 inhibition (oral dosing, blood challenged with A23187); format: in vivo, Rats; conditions: two hours post dose
Method in brief: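 Male CD rats (250 g, non-fasted) dosed orally with compound in PEG 400, 5 rats/group; blood drawn by cardiac puncture before and 2 h after dosing. Heparinized blood challenged with A23187 calcium ionophore, 30 min at 37°C; plasma LTB4 measured by radioimmunoassay. % inhibition = post-dose vs pre-dose LTB4 level.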

Compound: CSc1cccc(NC(=O)NO)c1 [Compound 34, 1-hydroxy-3-[3-(methylthio)phenyl]urea]
- IC50 [1]: 460 nM
- IC50 [2]: > 10000 nM
- %I ([3]; 25 mg/Kg): -2.9%

Compound: CCN(O)C(=O)Nc1ccccc1 [Compound 43, 1-ethyl-1-hydroxy-3-phenylurea]
- IC50 [1]: 30 nM
- IC50 [2]: 900 nM
- %I ([3]; 20 mg/Kg): 12%
- %I ([3]; 50 mg/Kg): 16%
